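Method: 48-hour compound exposure of cells in 96-well plates, five concentrations, linear interpolation of endpoints. TGI: concentration producing complete growth inhibition.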
Tests used:
Assay in all cases: inhibition of tumour cell growth, NCI panel, 48 h
OVCAR-4 ovarian = test system: OVCAR-4 ovarian
OVCAR-8 ovarian = test system: OVCAR-8 ovarian
EKVX NSCLC = test system: EKVX NSCLC
LOX IMVI melanoma = test system: LOX IMVI melanoma
OVCAR-5 ovarian = test system: OVCAR-5 ovarian
SK-MEL-5 melanoma = test system: SK-MEL-5 melanoma
UACC-257 melanoma = test system: UACC-257 melanoma
RPMI-8226 leukemia = test system: RPMI-8226 leukemia
UACC-62 melanoma = test system: UACC-62 melanoma
SW-620 colon = test system: SW-620 colon
SR leukemia = test system: SR leukemia
T-47D breast = test system: T-47D breast
SK-OV-3 ovarian = test system: SK-OV-3 ovarian
KM12 colon = test system: KM12 colon
SK-MEL-2 melanoma = test system: SK-MEL-2 melanoma
MDA-MB-435 = test system: MDA-MB-435
UO-31 renal = test system: UO-31 renal
HCT-15 colon = test system: HCT-15 colon
OVCAR-3 ovarian = test system: OVCAR-3 ovarian
ACHN renal = test system: ACHN renal
NCI-H460 lung = test system: NCI-H460 lung
SF-295 CNS = test system: SF-295 CNS
MALME-3M melanoma = test system: MALME-3M melanoma
CAKI-1 renal = test system: CAKI-1 renal
PC-3 prostate = test system: PC-3 prostate
RXF 393 renal = test system: RXF 393 renal
TK-10 renal = test system: TK-10 renal
SF-539 CNS = test system: SF-539 CNS
HL-60(TB) leukemia = test system: HL-60(TB) leukemia
NCI-H226 lung = test system: NCI-H226 lung
MCF7 breast = test system: MCF7 breast
HT29 colon = test system: HT29 colon
COLO 205 colon = test system: COLO 205 colon
DU-145 prostate = test system: DU-145 prostate
HOP-92 NSCLC = test system: HOP-92 NSCLC
SNB-19 CNS = test system: SNB-19 CNS
MDA-N = test system: MDA-N
SF-268 CNS = test system: SF-268 CNS
NCI-H23 lung = test system: NCI-H23 lung
A498 renal = test system: A498 renal
SK-MEL-28 melanoma = test system: SK-MEL-28 melanoma
M14 melanoma = test system: M14 melanoma
MDA-MB-231 breast = test system: MDA-MB-231 breast
HOP-62 NSCLC = test system: HOP-62 NSCLC
BT-549 breast = test system: BT-549 breast
MOLT-4 leukemia = test system: MOLT-4 leukemia
IGROV1 ovarian = test system: IGROV1 ovarian
786-0 renal = test system: 786-0 renal
U251 CNS = test system: U251 CNS
SN12C renal = test system: SN12C renal
NCI-H522 lung = test system: NCI-H522 lung
SNB-75 CNS = test system: SNB-75 CNS
NCI/ADR-RES ovarian = test system: NCI/ADR-RES ovarian
HS 578T breast = test system: HS 578T breast
A549 NSCLC = test system: A549 NSCLC
HCT-116 colon = test system: HCT-116 colon
K-562 leukemia = test system: K-562 leukemia
CCRF-CEM leukemia = test system: CCRF-CEM leukemia

SMILES: NS(=O)(=O)c1ccc(N=Nc2ncccc2O)cc1
- TGI (OVCAR-4 ovarian): > 100 µM
- TGI (OVCAR-8 ovarian): > 100 µM
- TGI (EKVX NSCLC): > 100 µM
- TGI (LOX IMVI melanoma): > 100 µM
- TGI (OVCAR-5 ovarian): > 100 µM
- TGI (SK-MEL-5 melanoma): > 100 µM
- TGI (UACC-257 melanoma): > 100 µM
- TGI (RPMI-8226 leukemia): > 100 µM
- TGI (UACC-62 melanoma): > 100 µM
- TGI (SW-620 colon): > 100 µM
- TGI (SR leukemia): 71.9 µM
- TGI (T-47D breast): > 100 µM
- TGI (SK-OV-3 ovarian): > 100 µM
- TGI (KM12 colon): > 100 µM
- TGI (SK-MEL-2 melanoma): > 100 µM
- TGI (MDA-MB-435): > 100 µM
- TGI (UO-31 renal): > 100 µM
- TGI (HCT-15 colon): > 100 µM
- TGI (OVCAR-3 ovarian): > 100 µM
- TGI (ACHN renal): > 100 µM
- TGI (NCI-H460 lung): > 100 µM
- TGI (SF-295 CNS): > 100 µM
- TGI (MALME-3M melanoma): > 100 µM
- TGI (CAKI-1 renal): > 100 µM
- TGI (PC-3 prostate): > 100 µM
- TGI (RXF 393 renal): > 100 µM
- TGI (TK-10 renal): > 100 µM
- TGI (SF-539 CNS): > 100 µM
- TGI (HL-60(TB) leukemia): > 100 µM
- TGI (NCI-H226 lung): > 100 µM
- TGI (MCF7 breast): > 100 µM
- TGI (HT29 colon): > 100 µM
- TGI (COLO 205 colon): > 100 µM
- TGI (DU-145 prostate): > 100 µM
- TGI (HOP-92 NSCLC): > 100 µM
- TGI (SNB-19 CNS): > 100 µM
- TGI (MDA-N): > 100 µM
- TGI (SF-268 CNS): > 100 µM
- TGI (NCI-H23 lung): > 100 µM
- TGI (A498 renal): > 100 µM
- TGI (SK-MEL-28 melanoma): > 100 µM
- TGI (M14 melanoma): > 100 µM
- TGI (MDA-MB-231 breast): > 100 µM
- TGI (HOP-62 NSCLC): > 100 µM
- TGI (BT-549 breast): > 100 µM
- TGI (MOLT-4 leukemia): 87.8 µM
- TGI (IGROV1 ovarian): > 100 µM
- TGI (786-0 renal): > 100 µM
- TGI (U251 CNS): > 100 µM
- TGI (SN12C renal): > 100 µM
- TGI (NCI-H522 lung): > 100 µM
- TGI (SNB-75 CNS): > 100 µM
- TGI (NCI/ADR-RES ovarian): > 100 µM
- TGI (HS 578T breast): > 100 µM
- TGI (A549 NSCLC): > 100 µM
- TGI (HCT-116 colon): > 100 µM
- TGI (K-562 leukemia): > 100 µM

SMILES: O=c1[nH]cnc2[nH]cc(CN3CCCCC3)c12
- TGI (OVCAR-4 ovarian): > 100 µM
- TGI (OVCAR-8 ovarian): > 100 µM
- TGI (EKVX NSCLC): > 100 µM
- TGI (LOX IMVI melanoma): > 100 µM
- TGI (OVCAR-5 ovarian): > 100 µM
- TGI (SK-MEL-5 melanoma): > 100 µM
- TGI (UACC-257 melanoma): 87.3 µM
- TGI (RPMI-8226 leukemia): 87.2 µM
- TGI (UACC-62 melanoma): > 100 µM
- TGI (SW-620 colon): > 100 µM
- TGI (SR leukemia): > 100 µM
- TGI (T-47D breast): > 100 µM
- TGI (SK-OV-3 ovarian): > 100 µM
- TGI (KM12 colon): > 100 µM
- TGI (SK-MEL-2 melanoma): > 100 µM
- TGI (MDA-MB-435): > 100 µM
- TGI (UO-31 renal): > 100 µM
- TGI (HCT-15 colon): > 100 µM
- TGI (OVCAR-3 ovarian): > 100 µM
- TGI (ACHN renal): > 100 µM
- TGI (NCI-H460 lung): 43.8 µM
- TGI (SF-295 CNS): > 100 µM
- TGI (MALME-3M melanoma): > 100 µM
- TGI (CAKI-1 renal): > 100 µM
- TGI (PC-3 prostate): > 100 µM
- TGI (RXF 393 renal): > 100 µM
- TGI (TK-10 renal): > 100 µM
- TGI (SF-539 CNS): > 100 µM
- TGI (HL-60(TB) leukemia): 38.2 µM
- TGI (NCI-H226 lung): > 100 µM
- TGI (MCF7 breast): > 100 µM
- TGI (HT29 colon): > 100 µM
- TGI (COLO 205 colon): > 100 µM
- TGI (DU-145 prostate): > 100 µM
- TGI (HOP-92 NSCLC): > 100 µM
- TGI (SNB-19 CNS): > 100 µM
- TGI (MDA-N): > 100 µM
- TGI (SF-268 CNS): > 100 µM
- TGI (NCI-H23 lung): > 100 µM
- TGI (A498 renal): > 100 µM
- TGI (SK-MEL-28 melanoma): > 100 µM
- TGI (M14 melanoma): > 100 µM
- TGI (MDA-MB-231 breast): > 100 µM
- TGI (HOP-62 NSCLC): > 100 µM
- TGI (CCRF-CEM leukemia): 36.2 µM
- TGI (BT-549 breast): > 100 µM
- TGI (MOLT-4 leukemia): > 100 µM
- TGI (IGROV1 ovarian): > 100 µM
- TGI (786-0 renal): > 100 µM
- TGI (U251 CNS): > 100 µM
- TGI (SN12C renal): > 100 µM
- TGI (NCI-H522 lung): > 100 µM
- TGI (SNB-75 CNS): > 100 µM
- TGI (NCI/ADR-RES ovarian): > 100 µM
- TGI (HS 578T breast): > 100 µM
- TGI (A549 NSCLC): > 100 µM
- TGI (HCT-116 colon): 30.6 µM
- TGI (K-562 leukemia): > 100 µM

SMILES: Cc1cn(C2CC(Br)C(COC(c3ccccc3)(c3ccccc3)c3ccccc3)O2)c(=O)[nH]c1=O (stereo not given)
- TGI (OVCAR-4 ovarian): 25.8 µM
- TGI (OVCAR-8 ovarian): 23.2 µM
- TGI (EKVX NSCLC): 28.9 µM
- TGI (LOX IMVI melanoma): 24.4 µM
- TGI (OVCAR-5 ovarian): 30.4 µM
- TGI (SK-MEL-5 melanoma): 25.5 µM
- TGI (UACC-257 melanoma): 29.8 µM
- TGI (RPMI-8226 leukemia): 20.6 µM
- TGI (UACC-62 melanoma): 24.8 µM
- TGI (SW-620 colon): 28.5 µM
- TGI (SR leukemia): 23.1 µM
- TGI (T-47D breast): 26.3 µM
- TGI (KM12 colon): 19.4 µM
- TGI (SK-MEL-2 melanoma): 28.7 µM
- TGI (MDA-MB-435): 30.1 µM
- TGI (UO-31 renal): 19.5 µM
- TGI (OVCAR-3 ovarian): 25.2 µM
- TGI (ACHN renal): 26.8 µM
- TGI (SF-295 CNS): 21.7 µM
- TGI (MALME-3M melanoma): 32.4 µM
- TGI (CAKI-1 renal): 29.2 µM
- TGI (PC-3 prostate): 17.7 µM
- TGI (RXF 393 renal): 23.5 µM
- TGI (TK-10 renal): 28 µM
- TGI (SF-539 CNS): 31.6 µM
- TGI (HL-60(TB) leukemia): > 100 µM
- TGI (NCI-H226 lung): 34.2 µM
- TGI (MCF7 breast): 22.4 µM
- TGI (HT29 colon): 23.4 µM
- TGI (COLO 205 colon): 27.1 µM
- TGI (DU-145 prostate): 27.7 µM
- TGI (HOP-92 NSCLC): 24.6 µM
- TGI (SNB-19 CNS): 29.9 µM
- TGI (MDA-N): 28.2 µM
- TGI (SF-268 CNS): 28.4 µM
- TGI (NCI-H23 lung): 20 µM
- TGI (A498 renal): 29.9 µM
- TGI (SK-MEL-28 melanoma): 30.3 µM
- TGI (M14 melanoma): 26.7 µM
- TGI (MDA-MB-231 breast): 33.5 µM
- TGI (HOP-62 NSCLC): 31 µM
- TGI (CCRF-CEM leukemia): 24.1 µM
- TGI (BT-549 breast): 24.4 µM
- TGI (MOLT-4 leukemia): 28.8 µM
- TGI (IGROV1 ovarian): 27.9 µM
- TGI (786-0 renal): 27.4 µM
- TGI (U251 CNS): 24.9 µM
- TGI (SN12C renal): 27.8 µM
- TGI (NCI-H522 lung): 19.8 µM
- TGI (SNB-75 CNS): 24.3 µM
- TGI (NCI/ADR-RES ovarian): 28.9 µM
- TGI (HS 578T breast): 32.8 µM
- TGI (A549 NSCLC): 23.8 µM
- TGI (HCT-116 colon): 20.5 µM
- TGI (K-562 leukemia): > 100 µM

Source: PubChem BioAssay (NCI)
